Like-named read-outs stand apart in the source and are kept apart here.
Assays:
[1] = target: T1, Nox2 (Homo sapiens, UniProt P04839); test: Seahorse XFe96 oxygen consumption in dHL60 cells before and after PMA; format: cell-based
T1 construct: endogenous in cells
T1 sequence (P04839 2-570 limits assumed): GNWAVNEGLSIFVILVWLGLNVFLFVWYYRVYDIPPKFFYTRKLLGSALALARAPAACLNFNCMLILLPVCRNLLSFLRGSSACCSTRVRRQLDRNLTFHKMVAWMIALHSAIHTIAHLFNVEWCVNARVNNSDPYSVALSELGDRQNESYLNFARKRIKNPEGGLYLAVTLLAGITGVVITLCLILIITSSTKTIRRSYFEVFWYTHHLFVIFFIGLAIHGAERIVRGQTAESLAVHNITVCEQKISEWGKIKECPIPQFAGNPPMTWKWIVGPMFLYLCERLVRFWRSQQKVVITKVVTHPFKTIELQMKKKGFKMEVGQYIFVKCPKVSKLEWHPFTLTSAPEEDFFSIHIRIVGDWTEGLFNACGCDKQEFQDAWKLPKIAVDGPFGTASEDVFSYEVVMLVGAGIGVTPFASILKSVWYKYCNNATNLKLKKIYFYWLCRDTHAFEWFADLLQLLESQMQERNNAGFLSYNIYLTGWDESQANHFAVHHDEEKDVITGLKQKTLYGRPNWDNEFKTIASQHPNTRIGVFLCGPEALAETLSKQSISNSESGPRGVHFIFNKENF
T1 sequence (P13498 2-195 partner limits assumed): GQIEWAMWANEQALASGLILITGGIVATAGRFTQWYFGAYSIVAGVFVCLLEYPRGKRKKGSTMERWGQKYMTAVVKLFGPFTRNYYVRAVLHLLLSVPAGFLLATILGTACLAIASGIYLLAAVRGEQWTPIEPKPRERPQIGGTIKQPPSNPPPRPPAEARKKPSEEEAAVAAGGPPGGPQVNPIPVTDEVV
Procedure: Oxygen consumption in dHL60 cells was monitored before and after the sequential addition of the candidate Nox inhibitors and PMA using a Seahorse XFe96 extracellular flux analyzer (Agilent Technologies, Santa Clara, CA, USA). The cell suspension was prepared in phenol red-free RPMI medium (without bicarbonate) and aliquoted (80 µL/well) into a 96-well plate to obtain a final cell number of 2 × 10^4 cells/well. Cells were spun down and an additional amount of RPMI medium (100 µL/well) was added gently so as not to disturb the cells at the bottom of the wells. The solutions for injections were prepared 10× concentrated, loaded into the injection ports of the Seahorse XFe96 cartridge, and the volumes injected were 20 µL and 22.2 µL for the compounds tested and PMA, respectively. The oxygen consumption rates were monitored for 30 min before injection (baseline respiration rate), 60 min after injection of different concentrations of the candidate Nox inhibitors, and 2 h after injection of PMA (final concentration: 1 µM). Increases in OCR values after PMA injection were used as a measure of Nox2 activity.

[2] = Plasma and brain pharmacokinetics in C57BL/6 mice; format: in vivo; conditions: male, C57BL/6, mouse, ip, C57BL6 mice, single dose 20 mg/kg i.p.
Procedure: TG15-132 at a 20 mg/kg dose in a vehicle formulation of 10% DMSO, 50% PEG400, and 40% reversed osmosis-purified water (v/v) was administered to healthy male C57BL/6 mice weighing an average of 27 g by intraperitoneal (i.p.) injection. Blood samples (approximately 60 μL) were collected from the retro-orbital plexus of three animals at times 0.08, 0.25, 0.5, 1, 2, 4, 8, and 24 h after compound administration. Along with the terminal blood samples, the brain samples were also collected at the time points 0.25, 0.5, 2.0, 4.0, 8.0, and 24 h.
Blood samples were collected into labeled microtubes containing dipotassium EDTA solution (20%) as an anticoagulant. Plasma was immediately harvested from the blood by centrifugation at 4000 rpm for 10 min at 4 ± 2 °C and stored below −70 °C until bioanalysis. After isolation, brain tissue samples were rinsed three times in ice cold normal saline (for 5–10 s/rinse using ~5–10 mL normal saline in disposable petri dishes for each rinse) and dried on blotting paper. Tissue samples were homogenized using ice-cold phosphate-buffered saline (pH 7.4). The total homogenate volume (µL) was three times the tissue weight (mg). All homogenates were stored below −70 ± 10 °C until bioanalysis. Concentrations of TG15-132 in plasma and brain samples were determined by fit-for-purpose liquid chromatography with the tandem mass spectrometry method (Sai-Life, Hyderabad, India). Phoenix WinNonlin (version 8.0, Certara, Princeton, NJ, USA) was used to analyze the pharmacokinetic parameters.

## CN(C)CCCn1c(SCCc2c[nH]c3ccccc23)nc2ccc(F)cc2c1=O [TG15-132]
[1]; 1 h after compound injection, before PMA, concentrations that inhibit PMA-induced OCR
  basal respiration (OCR): no inhibition of basal respiration
[1]; PMA 1 µM after 1 h compound
  PMA-induced OCR: significant inhibition of PMA-induced OCR
[2]; brain, read-out: brain half-life (converted)
  half-life: 2.7 h
[2]; brain, read-out: brain-to-plasma ratio
  Kp: > 6
[2]; plasma, read-out: plasma half-life (converted)
  half-life: 2.7 h

Source: PMC10525516, “Novel NADPH Oxidase-2 Inhibitors as Potential Anti-Inflammatory and Neuroprotective Agents” (Antioxidants, 2023)
